{"source": "patent US20090197279A1", "about": "“MICROTUBULE SYNTHESIS AS A BIOMARKER” (KINEMED, INC., priority 2005, published 2009)", "key": {"C57BL/6JBomTac mice": {"test_system": "C57BL/6JBomTac mice", "assay": "Contextual fear conditioning (CFC), freezing behavior", "format": "in vivo, mouse", "from_the_text": "FIG. 10 depicts microtubule/tubulin exchange during hippocampus-dependent contextual memory. (A) Protocol for measurement of microtubule/tubulin exchange during contextual fear conditioning (CFC). Tubulin dimers and microtubules subsets were labeled to plateau through continuous ^2H2O labeling, starting one day before CFC training. Labeling was continued throughout CFC training (Day 2) and the contextual conditioning test until mice were euthanized (Day 3). Vehicle or nocodazole treated-mice were injected 4 hours before CFC training, consisting of three pairings of conditioned and unconditioned stimuli inside an observation chamber, as described in Example 7 below. […] Microtubule subpopulations were fractionated as described below, and the percentage of newly synthesized tubulin was quantified by GC/MS (mean±SD, n=3). […]\nFear conditioning experiments were done as previously described (Bourtchouladze, R. et al. Different training procedures recruit either one or two critical periods for contextual memory consolidation, each of which requires protein synthesis and PKA. Learn. Mem. 5, 365-374 (1998)). […] On day later, contextual conditioning was assessed for 3 consecutive minutes in the chamber in which the mice were trained (CFC test). […]"}, "[1]": {"test_system": "hippocampal tubulin dimers and microtubule subsets", "assay": "2H label incorporation into hippocampal tubulin dimers and microtubule subsets during CFC (GC/MS)", "format": "in vivo, mouse", "details": "conditioned mice, hippocampus", "from_the_text": "FIG. 10 depicts microtubule/tubulin exchange during hippocampus-dependent contextual memory. (A) Protocol for measurement of microtubule/tubulin exchange during contextual fear conditioning (CFC). Tubulin dimers and microtubules subsets were labeled to plateau through continuous ^2H2O labeling, starting one day before CFC training. Labeling was continued throughout CFC training (Day 2) and the contextual conditioning test until mice were euthanized (Day 3). Vehicle or nocodazole treated-mice were injected 4 hours before CFC training, consisting of three pairings of conditioned and unconditioned stimuli inside an observation chamber, as described in Example 7 below. (B) CFC experiments were conducted in groups of naïve, vehicle- (50% cyclodextrin) and nocodazole-treated (0.2 mg/kg) mice (mean±SD, n=8 per each group), respectively. […] (C-E) ^2H label incorporation into hippocampal tubulin dimers and microtubule subsets was compared at sacrifice in the indicated experimental groups. Microtubule subpopulations were fractionated as described below, and the percentage of newly synthesized tubulin was quantified by GC/MS (mean±SD, n=3). (C) and (D) In vehicle-CFC trained mice, the increased freezing response corresponded with an increase in ^2H labeling of MAP2- and CS-associated MTs, compared to naïve control animals (§p<0.01 and §§p<0.05; two-way ANOVA). […] In (C-E), bars represent % new tubulin (mean±SD, n=3).\nTubulin was purified using minor modifications of protocols described previously (Fanara, P., Oback, B., Ashman, K., Podtelejnikov, A., Brandt, R. Identification of MINUS, a small polypeptide that functions as a microtubule nucleation suppressor. EMBO J. 18, 565-577 (1999); Fanara, P. et al. In vivo measurement of microtubule dynamics using stable isotope labeling with heavy water. Effect of taxanes. J. Biol. Chem. 279, 49940-49947 (2004). Briefly, cultured neurons were gently scraped off culture plates, washed in phosphate-buffered saline (PBS), and homogenized in microtubule-stabilizing buffer. For purification ex vivo, mice were anesthetized with isoflurane and euthanized by cervical dislocation. Brains were rapidly removed and washed in microtubule-stabilizing buffer (MSB); hippocampi were dissected and gently homogenized in MSB. […] The relative abundance of tubulin in each preparation (Tubulin dimers and TAU5-bound, MAP2-bound, and unbound microtubule fractions) was quantified by Western blot, and tubulin from these fractions was further purified by ion exchange and size exclusion chromatography, as previously described (Fanara, P. et al. In vivo measurement of microtubule dynamics using stable isotope labeling with heavy water. Effect of taxanes. J. Biol. Chem. 279, 49940-49947 (2004)). […]"}}, "note": "“Also recorded” adds a separate entry of the source."}
{"smiles": "COC(=O)Nc1nc2ccc(C(=O)c3cccs3)cc2[nH]1", "note": "[nocodazole]", "values": [{"measurement": "freezing behavior (% of freezing to context), CFC test", "setting": "C57BL/6JBomTac mice; nocodazole 0.2 mg/kg i.p. 4 hours before CFC training, test one day after training, vs vehicle-treated mice", "value": "significant reduction; also recorded: significantly lower"}, {"measurement": "contextual fear responses measured immediately after training", "setting": "C57BL/6JBomTac mice; nocodazole vs vehicle, data not shown", "value": "similar"}, {"measurement": "label incorporation into tau-associated microtubules", "setting": "[1]; nocodazole 0.2 mg/kg vs basal levels in naïve and conditioned animals", "value": "reduced; also recorded: significant disassembly"}, {"measurement": "2H incorporation into free tubulin dimers", "setting": "[1]; nocodazole 0.2 mg/kg vs vehicle-treated controls", "value": "increase"}, {"measurement": "label incorporation into MAP2-associated microtubules", "setting": "[1]; nocodazole 0.2 mg/kg vs vehicle", "value": "reversed; also recorded: significant disassembly"}, {"measurement": "reduction of label incorporation into CS microtubules", "setting": "[1]; nocodazole 0.2 mg/kg", "value": "not statistically significant"}]}
